Experimental findings from patent publication US20040224958A1, “Pyridopyrimidinone derivatives for treatment of neurodegenerative disease” (priority 2000, published 2004) are described below.

pIC50: −log10 of the molar value.

Chain of cdc2/cyclinB (P06493 whole entry): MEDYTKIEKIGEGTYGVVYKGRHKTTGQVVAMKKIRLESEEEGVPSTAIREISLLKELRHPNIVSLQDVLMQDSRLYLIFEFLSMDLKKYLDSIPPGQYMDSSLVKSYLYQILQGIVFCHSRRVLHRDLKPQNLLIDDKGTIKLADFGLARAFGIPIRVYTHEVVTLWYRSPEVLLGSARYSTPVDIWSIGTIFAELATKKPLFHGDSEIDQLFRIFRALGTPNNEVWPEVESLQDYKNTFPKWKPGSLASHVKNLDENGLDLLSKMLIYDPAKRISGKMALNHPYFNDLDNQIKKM
Chain of cdc2/cyclinB (P14635 whole entry, further chain): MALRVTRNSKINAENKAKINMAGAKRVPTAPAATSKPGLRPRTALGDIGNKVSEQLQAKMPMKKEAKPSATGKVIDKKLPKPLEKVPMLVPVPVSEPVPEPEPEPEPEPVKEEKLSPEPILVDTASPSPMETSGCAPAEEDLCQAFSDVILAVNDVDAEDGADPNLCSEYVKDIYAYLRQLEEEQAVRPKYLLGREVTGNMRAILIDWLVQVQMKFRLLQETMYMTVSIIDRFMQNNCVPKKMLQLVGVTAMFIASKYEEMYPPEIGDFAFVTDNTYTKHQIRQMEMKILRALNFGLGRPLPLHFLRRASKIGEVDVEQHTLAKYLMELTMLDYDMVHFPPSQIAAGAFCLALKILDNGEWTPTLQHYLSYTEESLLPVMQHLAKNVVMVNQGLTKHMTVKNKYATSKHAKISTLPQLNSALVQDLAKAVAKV

The target of one experiment is cdk2/cyclinA (Homo sapiens, UniProt P24941). As to the kind of experiment: Cyclin-Dependent Kinase Assay cdk2/cyclinA. To be noted: cdk2/A IC50.
Consider `CCCn1c(=O)ccc2cnc(Nc3cc(Cl)c(O)c(Cl)c3)nc21` [Example 328, 2-(3,5-Dichloro-4-hydroxy-phenylamino)-8-propyl-8H-pyrido[2,3-d]pyrimidin-7-one], for which the pIC50 is 7.12.

With `CCCn1c(=O)ccc2cnc(Nc3ccc(OC)cc3)nc21` [Example 329, 2-(4-Methoxy-phenylamino)-8-propyl-8H-pyrido[2,3-d]pyrimidin-^7-one], the pIC50 is 6.37.

For the compound `CCCn1c(=O)ccc2cnc(Nc3cccc([N+](=O)[O-])c3)nc21` [Example 330, 2-(3-Nitro-phenylamino)-8-propyl-8H-pyrido[2,3-d]pyrimidin-7-one], the pIC50 is 5.94.

Consider `CCCn1c(=O)ccc2cnc(Nc3ccc(OC)c(OC)c3)nc21` [Example 331, 2-(3,4-Dimethoxy-phenylamino)-8-propyl-8H-pyrido[2,3-d]pyrimidin-7-one], for which the pIC50 was 6.06.

For `CCCn1c(=O)ccc2cnc(Nc3ccc(F)cc3)nc21` [Example 332, 2-(4-Fluoro-phenylamino)-8-propyl-8H-pyrido[2,3-d]pyrimidin-7-one], the pIC50 is 5.88.

Compound `CCCn1c(=O)ccc2cnc(Nc3cc([N+](=O)[O-])ccc3F)nc21` [Example 333, 2-(2-Fluoro-5-nitro-phenylamino)-8-propyl-8H-pyrido[2,3-d]pyrimidin-7-one] showed a pIC50 of 5.77.

In turn, `CCCn1c(=O)ccc2cnc(Nc3ccc(F)c(C(F)(F)F)c3)nc21` [Example 335, 2-(4-Fluoro-3-trifluoromethyl-phenylamino)-8-propyl-8H-pyrido[2,3-d]pyrimidin-7-one] had a pIC50 of 5.96.

`CCCn1c(=O)ccc2cnc(Nc3ccc(OC)c(O)c3)nc21` [Example 336, 2-(3-Hydroxy-4-methoxy-phenylamino)-8-propyl-8H-pyrido[2,3-d]pyrimidin-7-one] showed a pIC50 of 5.77.

Compound `CCCn1c(=O)ccc2cnc(Nc3ccc(F)c(C)c3)nc21` [Example 337, 2-(4-Fluoro-3-methyl-phenylamino)-8-propyl-8H-pyrido[2,3-d]pyrimidin-7-one] had a pIC50 of 7.00.

Compound `CCCn1c(=O)ccc2cnc(Nc3ccc(OC)c(F)c3)nc21` [Example 338, 2-(3-Fluoro-4-methoxy-phenylamino)-8-propyl-8H-pyrido[2,3-d]pyrimidin-7-one] showed a pIC50 of 6.47.

The next experiment concerns the target cdc2/cyclinB (Homo sapiens, UniProt P06493). Description: Cyclin-Dependent Kinase Assay cdc2/cyclinB.
Conditions: not given
`CCCn1c(=O)ccc2cnc(Nc3cc(Cl)c(O)c(Cl)c3)nc21` [Example 328, 2-(3,5-Dichloro-4-hydroxy-phenylamino)-8-propyl-8H-pyrido[2,3-d]pyrimidin-7-one] gave a pIC50 of 7.10.

For the compound `CCCn1c(=O)ccc2cnc(Nc3ccc(OC)cc3)nc21` [Example 329, 2-(4-Methoxy-phenylamino)-8-propyl-8H-pyrido[2,3-d]pyrimidin-^7-one], the pIC50 was 6.49.

Compound `CCCn1c(=O)ccc2cnc(Nc3cccc([N+](=O)[O-])c3)nc21` [Example 330, 2-(3-Nitro-phenylamino)-8-propyl-8H-pyrido[2,3-d]pyrimidin-7-one] gave a pIC50 of 6.03.

`CCCn1c(=O)ccc2cnc(Nc3ccc(OC)c(OC)c3)nc21` [Example 331, 2-(3,4-Dimethoxy-phenylamino)-8-propyl-8H-pyrido[2,3-d]pyrimidin-7-one] gave a pIC50 of 6.38.

As for `CCCn1c(=O)ccc2cnc(Nc3ccc(F)cc3)nc21` [Example 332, 2-(4-Fluoro-phenylamino)-8-propyl-8H-pyrido[2,3-d]pyrimidin-7-one], the pIC50 was 5.98.

Turning to `CCCn1c(=O)ccc2cnc(Nc3cc([N+](=O)[O-])ccc3F)nc21` [Example 333, 2-(2-Fluoro-5-nitro-phenylamino)-8-propyl-8H-pyrido[2,3-d]pyrimidin-7-one], the pIC50 is 5.89.

Turning to `CCCn1c(=O)ccc2cnc(Nc3ccc(F)c(C(F)(F)F)c3)nc21` [Example 335, 2-(4-Fluoro-3-trifluoromethyl-phenylamino)-8-propyl-8H-pyrido[2,3-d]pyrimidin-7-one], the pIC50 is 6.60.

Turning to `CCCn1c(=O)ccc2cnc(Nc3ccc(OC)c(O)c3)nc21` [Example 336, 2-(3-Hydroxy-4-methoxy-phenylamino)-8-propyl-8H-pyrido[2,3-d]pyrimidin-7-one], the pIC50 was 6.49.

Turning to `CCCn1c(=O)ccc2cnc(Nc3ccc(F)c(C)c3)nc21` [Example 337, 2-(4-Fluoro-3-methyl-phenylamino)-8-propyl-8H-pyrido[2,3-d]pyrimidin-7-one], the pIC50 was 6.82.

`CCCn1c(=O)ccc2cnc(Nc3ccc(OC)c(F)c3)nc21` [Example 338, 2-(3-Fluoro-4-methoxy-phenylamino)-8-propyl-8H-pyrido[2,3-d]pyrimidin-7-one] showed a pIC50 of 6.24.

Another experiment deals with cdk4/D (Homo sapiens, UniProt P11802). As to the kind of experiment: Cyclin-Dependent Kinase 4 (cdk4) Assay. Type of experiment: biochemical. To be noted: read-out: cdk4/D IC50.
Chain of cdk4/D (P11802 whole entry): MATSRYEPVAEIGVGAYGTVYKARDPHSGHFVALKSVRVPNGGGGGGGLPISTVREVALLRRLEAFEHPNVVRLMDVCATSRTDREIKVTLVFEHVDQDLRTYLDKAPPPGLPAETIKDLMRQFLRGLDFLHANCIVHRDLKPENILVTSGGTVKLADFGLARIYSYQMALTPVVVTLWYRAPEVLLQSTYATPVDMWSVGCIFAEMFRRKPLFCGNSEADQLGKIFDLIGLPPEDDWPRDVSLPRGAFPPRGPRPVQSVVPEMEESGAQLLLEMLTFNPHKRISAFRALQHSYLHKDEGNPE
Chain of cdk4/D (P24385 whole entry, further chain): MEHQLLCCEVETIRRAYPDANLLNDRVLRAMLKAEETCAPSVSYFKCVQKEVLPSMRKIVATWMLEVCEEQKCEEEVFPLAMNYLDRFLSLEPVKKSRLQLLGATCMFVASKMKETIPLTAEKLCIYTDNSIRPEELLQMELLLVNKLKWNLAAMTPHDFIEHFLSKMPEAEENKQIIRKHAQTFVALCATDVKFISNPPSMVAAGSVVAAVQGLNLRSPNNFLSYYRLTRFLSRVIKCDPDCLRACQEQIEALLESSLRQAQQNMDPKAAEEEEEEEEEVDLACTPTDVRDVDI
In the case of `CCCn1c(=O)ccc2cnc(Nc3cc(Cl)c(O)c(Cl)c3)nc21` [Example 328, 2-(3,5-Dichloro-4-hydroxy-phenylamino)-8-propyl-8H-pyrido[2,3-d]pyrimidin-7-one], the pIC50 was 6.16.

For the compound `CCCn1c(=O)ccc2cnc(Nc3ccc(OC)cc3)nc21` [Example 329, 2-(4-Methoxy-phenylamino)-8-propyl-8H-pyrido[2,3-d]pyrimidin-^7-one], the pIC50 is 6.50.

As for `CCCn1c(=O)ccc2cnc(Nc3cccc([N+](=O)[O-])c3)nc21` [Example 330, 2-(3-Nitro-phenylamino)-8-propyl-8H-pyrido[2,3-d]pyrimidin-7-one], the pIC50 is 5.68.

With `CCCn1c(=O)ccc2cnc(Nc3ccc(OC)c(OC)c3)nc21` [Example 331, 2-(3,4-Dimethoxy-phenylamino)-8-propyl-8H-pyrido[2,3-d]pyrimidin-7-one], the pIC50 was 5.70.

For `CCCn1c(=O)ccc2cnc(Nc3ccc(F)cc3)nc21` [Example 332, 2-(4-Fluoro-phenylamino)-8-propyl-8H-pyrido[2,3-d]pyrimidin-7-one], the pIC50 is 5.69.

Turning to `CCCn1c(=O)ccc2cnc(Nc3cc([N+](=O)[O-])ccc3F)nc21` [Example 333, 2-(2-Fluoro-5-nitro-phenylamino)-8-propyl-8H-pyrido[2,3-d]pyrimidin-7-one], the pIC50 is 6.17.

For the compound `CCCn1c(=O)ccc2cnc(Nc3ccc(F)c(C(F)(F)F)c3)nc21` [Example 335, 2-(4-Fluoro-3-trifluoromethyl-phenylamino)-8-propyl-8H-pyrido[2,3-d]pyrimidin-7-one], the pIC50 was 5.80.

For `CCCn1c(=O)ccc2cnc(Nc3ccc(OC)c(O)c3)nc21` [Example 336, 2-(3-Hydroxy-4-methoxy-phenylamino)-8-propyl-8H-pyrido[2,3-d]pyrimidin-7-one], the pIC50 is 5.62.

Consider `CCCn1c(=O)ccc2cnc(Nc3ccc(F)c(C)c3)nc21` [Example 337, 2-(4-Fluoro-3-methyl-phenylamino)-8-propyl-8H-pyrido[2,3-d]pyrimidin-7-one], for which the pIC50 is 6.37.

In the case of `CCCn1c(=O)ccc2cnc(Nc3ccc(OC)c(F)c3)nc21` [Example 338, 2-(3-Fluoro-4-methoxy-phenylamino)-8-propyl-8H-pyrido[2,3-d]pyrimidin-7-one], the pIC50 was 6.57.

A further experiment concerns the target Cdk5/p25 (Homo sapiens, UniProt Q00535). Description: Cyclin-Dependent Kinase 5 High Throughput Screening (cdk5-HTS) Assay. The conditions noted are these: high throughput screen. Type of experiment: biochemical. An outline of the steps: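 IC50 determined from 33P incorporation into GST-RbCOOH captured on glutathione plates and read by scintillation counting. Reaction: 1.0 μg/mL Cdk5/p25, 20 μM [γ33P]ATP, pH 7.4 Tris buffer with MgCl2 and DTT, 30 min at room temperature, stopped with EDTA.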
Compound `CCCn1c(=O)ccc2cnc(Nc3cc(Cl)c(O)c(Cl)c3)nc21` [Example 328, 2-(3,5-Dichloro-4-hydroxy-phenylamino)-8-propyl-8H-pyrido[2,3-d]pyrimidin-7-one] gave a pIC50 of 7.03.

As for `CCCn1c(=O)ccc2cnc(Nc3ccc(OC)cc3)nc21` [Example 329, 2-(4-Methoxy-phenylamino)-8-propyl-8H-pyrido[2,3-d]pyrimidin-^7-one], the pIC50 is 6.80.

In turn, `CCCn1c(=O)ccc2cnc(Nc3cccc([N+](=O)[O-])c3)nc21` [Example 330, 2-(3-Nitro-phenylamino)-8-propyl-8H-pyrido[2,3-d]pyrimidin-7-one] gave a pIC50 of 6.36.

On to `CCCn1c(=O)ccc2cnc(Nc3ccc(OC)c(OC)c3)nc21` [Example 331, 2-(3,4-Dimethoxy-phenylamino)-8-propyl-8H-pyrido[2,3-d]pyrimidin-7-one], for which the pIC50 is 6.80.

`CCCn1c(=O)ccc2cnc(Nc3ccc(F)cc3)nc21` [Example 332, 2-(4-Fluoro-phenylamino)-8-propyl-8H-pyrido[2,3-d]pyrimidin-7-one] had a pIC50 of 6.23.

With `CCCn1c(=O)ccc2cnc(Nc3cc([N+](=O)[O-])ccc3F)nc21` [Example 333, 2-(2-Fluoro-5-nitro-phenylamino)-8-propyl-8H-pyrido[2,3-d]pyrimidin-7-one], the pIC50 is 6.59.

The compound `CCCn1c(=O)ccc2cnc(Nc3ccc(F)c(C(F)(F)F)c3)nc21` [Example 335, 2-(4-Fluoro-3-trifluoromethyl-phenylamino)-8-propyl-8H-pyrido[2,3-d]pyrimidin-7-one] had a pIC50 of 6.47.

On to `CCCn1c(=O)ccc2cnc(Nc3ccc(OC)c(O)c3)nc21` [Example 336, 2-(3-Hydroxy-4-methoxy-phenylamino)-8-propyl-8H-pyrido[2,3-d]pyrimidin-7-one], for which the pIC50 is 7.13.

For `CCCn1c(=O)ccc2cnc(Nc3ccc(F)c(C)c3)nc21` [Example 337, 2-(4-Fluoro-3-methyl-phenylamino)-8-propyl-8H-pyrido[2,3-d]pyrimidin-7-one], the pIC50 was 6.82.

`CCCn1c(=O)ccc2cnc(Nc3ccc(OC)c(F)c3)nc21` [Example 338, 2-(3-Fluoro-4-methoxy-phenylamino)-8-propyl-8H-pyrido[2,3-d]pyrimidin-7-one] gave a pIC50 of 7.32.

The next experiment concerns the target cdk2/cyclinE (Homo sapiens, UniProt P24941). Description: Cyclin-Dependent Kinase Assay cdk2/cyclinE. The conditions noted are these: cdk2/E IC50.
With `CCCn1c(=O)ccc2cnc(Nc3cc(Cl)c(O)c(Cl)c3)nc21` [Example 328, 2-(3,5-Dichloro-4-hydroxy-phenylamino)-8-propyl-8H-pyrido[2,3-d]pyrimidin-7-one], the pIC50 was 7.45.

On to `CCCn1c(=O)ccc2cnc(Nc3ccc(OC)cc3)nc21` [Example 329, 2-(4-Methoxy-phenylamino)-8-propyl-8H-pyrido[2,3-d]pyrimidin-^7-one], for which the pIC50 is 6.56.

`CCCn1c(=O)ccc2cnc(Nc3cccc([N+](=O)[O-])c3)nc21` [Example 330, 2-(3-Nitro-phenylamino)-8-propyl-8H-pyrido[2,3-d]pyrimidin-7-one] had a pIC50 of 6.43.

`CCCn1c(=O)ccc2cnc(Nc3ccc(OC)c(OC)c3)nc21` [Example 331, 2-(3,4-Dimethoxy-phenylamino)-8-propyl-8H-pyrido[2,3-d]pyrimidin-7-one] had a pIC50 of 6.02.

In turn, `CCCn1c(=O)ccc2cnc(Nc3ccc(F)cc3)nc21` [Example 332, 2-(4-Fluoro-phenylamino)-8-propyl-8H-pyrido[2,3-d]pyrimidin-7-one] showed a pIC50 of 6.38.

Turning to `CCCn1c(=O)ccc2cnc(Nc3cc([N+](=O)[O-])ccc3F)nc21` [Example 333, 2-(2-Fluoro-5-nitro-phenylamino)-8-propyl-8H-pyrido[2,3-d]pyrimidin-7-one], the pIC50 was 6.47.

`CCCn1c(=O)ccc2cnc(Nc3ccc(F)c(C(F)(F)F)c3)nc21` [Example 335, 2-(4-Fluoro-3-trifluoromethyl-phenylamino)-8-propyl-8H-pyrido[2,3-d]pyrimidin-7-one]: the pIC50 is 6.80.

For the compound `CCCn1c(=O)ccc2cnc(Nc3ccc(OC)c(O)c3)nc21` [Example 336, 2-(3-Hydroxy-4-methoxy-phenylamino)-8-propyl-8H-pyrido[2,3-d]pyrimidin-7-one], the pIC50 was 6.92.

On to `CCCn1c(=O)ccc2cnc(Nc3ccc(F)c(C)c3)nc21` [Example 337, 2-(4-Fluoro-3-methyl-phenylamino)-8-propyl-8H-pyrido[2,3-d]pyrimidin-7-one], for which the pIC50 is 7.60.

Compound `CCCn1c(=O)ccc2cnc(Nc3ccc(OC)c(F)c3)nc21` [Example 338, 2-(3-Fluoro-4-methoxy-phenylamino)-8-propyl-8H-pyrido[2,3-d]pyrimidin-7-one] showed a pIC50 of 6.77.
